Data published in article PMC7047428 (ACS Central Science, 2020).

What was measured:
D2R WT [1] = molecular target: T1, D2R WT (Homo sapiens, UniProt P14416); assay: Split luciferase GloSensor cAMP assay, activation of Gi protein; type: cell-based; conditions: for G protein EC50: wild type D2R, HEK 293T, cAMP GloSensor
D2R WT [2] = molecular target: T1, D2R WT; assay: Tango arrestin recruitment assay; type: cell-based; conditions: wild type D2R, HTLA cells

T1 sequence (P14416 whole entry): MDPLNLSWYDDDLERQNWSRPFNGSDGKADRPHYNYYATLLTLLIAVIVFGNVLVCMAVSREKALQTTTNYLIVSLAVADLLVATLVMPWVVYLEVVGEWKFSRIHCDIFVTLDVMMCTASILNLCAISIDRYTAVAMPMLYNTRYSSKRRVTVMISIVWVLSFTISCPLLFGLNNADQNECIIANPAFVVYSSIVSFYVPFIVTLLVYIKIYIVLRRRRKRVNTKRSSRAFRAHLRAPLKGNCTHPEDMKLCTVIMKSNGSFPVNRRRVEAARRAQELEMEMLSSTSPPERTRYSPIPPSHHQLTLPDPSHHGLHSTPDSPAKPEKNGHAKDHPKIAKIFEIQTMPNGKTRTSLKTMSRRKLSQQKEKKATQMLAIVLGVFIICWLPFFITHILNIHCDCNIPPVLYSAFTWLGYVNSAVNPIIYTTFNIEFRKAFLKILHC

Row | EC50 (D2R WT [1]) [nM] | β-arrestin EC50 (D2R WT [2]) | G protein EC50 (D2R WT [1]) | SMILES
1 | 18.6 | – | – | Oc1c(CN2CCN(c3ccccn3)CC2)cc(F)c2cccnc12 [MLS-d1, 5-Fluoro-7-((4-(pyridin-2-yl)piperazin-1-yl)methyl)quinolin-8-ol]
2 | – | completely inactive | completely inactive | Oc1c(CN2CCN(c3ccccn3)CC2)cc(Br)c2cccnc12 [MLS-d3, 5-Bromo-7-((4-(pyridin-2-yl)piperazin-1-yl)methyl)quinolin-8-ol]
3 | – | did not show activation | did not show activation | O=[N+]([O-])c1cc(CN2CCN(c3ccccn3)CC2)c(O)c2ncccc12 [MLS-d4, 5-Nitro-7-((4-(pyridin-2-yl)piperazin-1-yl)methyl)quinolin-8-ol]
4 | 95 | – | – | Oc1c(CN2CCN(c3ccccn3)CC2)ccc2cccnc12 [MLS-d2, 7-((4-(Pyridin-2-yl)piperazin-1-yl)methyl)quinolin-8-ol]
